Assay results from patent US11911356B2, “Regulation of mutant TERT by BRAF V600E/map kinase pathway through FOS/GABP in human cancer” (THE JOHNS HOPKINS UNIVERSITY, priority 2017, dated 2024).

Tests used:
[1] = system: FOS phosphorylation; assay: Western blotting of phosphorylated FOS in K1 and A375 cells; format: cell-based, human; settings: 0.5 uM PLX4032 for 0, 1 and 24 hours
Description: FIG. 6A-6J. BRAF V600E promoted FOS binding to GABPB by upregulating FOS phosphorylation. (FIG. 6A) Western blotting analyses for phosphorylated-FOS (p-FOS), total FOS (t-FOS), BRAF, and beta-actin in K1 and A375 cells with or without stable BRAF knockdown. (FIG. 6B) Western blotting analyses of p-FOS, t-FOS, p-ERK, and beta-actin in K1 and A375 cells treated with 0.5 uM PLX4032 for 0, 1, and 24 hours. (FIG. 6C-6E) Effects of FOS phosphorylation on GABPB and TERT activation. (FIG. 6C) KAT18 cells were serum-starved for 24 hours and transiently transfected with FOS wild-type (FOS-wt) or mutant (FOS-mut) bearing none of the potential ERK-targeted phosphorylation sites, followed by Western blotting analysis for TERT, GABPB, p-FOS, t-FOS, and beta-actin. (FIG. 6D) KAT18 cells were transfected with FOS-wt or FOS-mut along with GABPB 5′-UTR luciferase reporter and Renilla luciferase (pRL-TK) plasmids in the absence of serum for 24 hours, and the luciferase activities were then measured. […]
Cells were lysed in the RIPA buffer (#sc-24948; Santa Cruz Biotechnology, Santa Cruz, CA) with protease inhibitor cocktail (#P8340; Sigma-Aldrich) and phosphatase inhibitor cocktail (#P0044; Sigma-Aldrich) and Western blotting analysis was performed as we previously described^54. […] Signals were detected by SuperSignal™ West Pico PLUS Chemiluminescent Substrate (#34579; Thermo Fisher Scientific). […]

[2] = system: MEK and ERK phosphorylation; settings: wild-type BRAF cells; previous finding (refs 28, 29); cited from earlier work

## CCCS(=O)(=O)Nc1ccc(F)c(C(=O)c2c[nH]c3ncc(-c4ccc(Cl)cc4)cc23)c1F [PLX4032]
[1]
  phosphorylation of FOS: significantly decreased the phosphorylation of FOS
[2]
  MEK and ERK phosphorylation: induced MEK and ERK phosphorylation
